Experimental data published in patent US20130315843A1, “COMPOSITION FOR REDUCTION OF TRPA1 AND TRPV1 SENSATIONS” (priority 2012, published 2013).
Entries after “also recorded” stand apart in the source; their conditions may differ. Like-named read-outs stand apart in the source and are kept apart here.

Legend:
[1] = target: T1, human TRPA1 (Homo sapiens, UniProt O75762); assay: FLIPR Ca2+ assay, reduction of hydrogen peroxide activation of TRPA1; assay type: cell-based; parameters: expressed in transfected cells; conditions: for inhibition at 100 µM / inhibition at 400 µM: read-out: % Reduction of Hydrogen Peroxide TRPA1 Activation; for inhibition at 400 µM: antagonist 400 μM against 200 μM hydrogen peroxide
T1 sequence (O75762 whole entry): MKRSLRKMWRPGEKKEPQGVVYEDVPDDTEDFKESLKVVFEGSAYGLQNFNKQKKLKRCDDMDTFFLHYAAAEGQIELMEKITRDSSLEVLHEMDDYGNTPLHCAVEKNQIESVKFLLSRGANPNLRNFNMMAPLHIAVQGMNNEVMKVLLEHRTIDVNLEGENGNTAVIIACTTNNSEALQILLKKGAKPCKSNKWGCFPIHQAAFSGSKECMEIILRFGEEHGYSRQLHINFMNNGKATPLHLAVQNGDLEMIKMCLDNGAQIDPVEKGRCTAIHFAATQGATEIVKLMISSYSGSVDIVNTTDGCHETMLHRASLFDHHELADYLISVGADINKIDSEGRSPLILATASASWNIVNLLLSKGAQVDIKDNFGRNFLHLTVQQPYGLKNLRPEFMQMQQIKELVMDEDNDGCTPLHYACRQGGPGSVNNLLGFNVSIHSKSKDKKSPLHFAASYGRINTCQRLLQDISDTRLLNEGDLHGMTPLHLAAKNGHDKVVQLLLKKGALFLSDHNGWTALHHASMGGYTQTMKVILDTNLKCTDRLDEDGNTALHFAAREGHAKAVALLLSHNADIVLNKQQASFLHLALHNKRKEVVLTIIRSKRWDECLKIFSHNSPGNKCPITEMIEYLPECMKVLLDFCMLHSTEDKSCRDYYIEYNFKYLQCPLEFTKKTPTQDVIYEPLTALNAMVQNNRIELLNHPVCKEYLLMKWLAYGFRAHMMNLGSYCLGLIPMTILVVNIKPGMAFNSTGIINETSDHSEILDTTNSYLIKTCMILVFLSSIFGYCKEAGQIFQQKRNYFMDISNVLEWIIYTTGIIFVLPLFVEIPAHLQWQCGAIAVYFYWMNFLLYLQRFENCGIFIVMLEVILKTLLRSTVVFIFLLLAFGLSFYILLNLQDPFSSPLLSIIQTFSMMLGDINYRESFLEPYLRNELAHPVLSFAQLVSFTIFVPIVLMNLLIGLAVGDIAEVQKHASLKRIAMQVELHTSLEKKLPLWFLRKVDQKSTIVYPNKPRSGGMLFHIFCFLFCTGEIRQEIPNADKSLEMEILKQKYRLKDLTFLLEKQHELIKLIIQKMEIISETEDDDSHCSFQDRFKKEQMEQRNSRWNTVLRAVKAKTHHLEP
Procedure: After centrifugation, a pellet of cells was formed in the bottom of the tube separating them from the supernatant solution.
(§1) The pelleted cells were re-suspended in 10 ml assay buffer and 90 μl aliquots (˜50,000 cells) per well delivered to a 96-well assay plate containing 10 μl of test compounds ([…]) or buffer control and incubated at room temperature for 30 minutes.

[2] = target: T2, human TRPV1 (Homo sapiens, UniProt Q8NER1); assay: FLIPR Ca2+ assay, reduction of L-Menthol activation of TRPV1; conditions: for Average Ca2+ Counts / % Reduction of L-Menthol TRPV1 Activation: antagonist 100 μM against 1 mM L-Menthol; for inhibition at 100 µM: read-out: % Reduction of L-Menthol TRPV1 Activation
T2 sequence (Q8NER1 whole entry): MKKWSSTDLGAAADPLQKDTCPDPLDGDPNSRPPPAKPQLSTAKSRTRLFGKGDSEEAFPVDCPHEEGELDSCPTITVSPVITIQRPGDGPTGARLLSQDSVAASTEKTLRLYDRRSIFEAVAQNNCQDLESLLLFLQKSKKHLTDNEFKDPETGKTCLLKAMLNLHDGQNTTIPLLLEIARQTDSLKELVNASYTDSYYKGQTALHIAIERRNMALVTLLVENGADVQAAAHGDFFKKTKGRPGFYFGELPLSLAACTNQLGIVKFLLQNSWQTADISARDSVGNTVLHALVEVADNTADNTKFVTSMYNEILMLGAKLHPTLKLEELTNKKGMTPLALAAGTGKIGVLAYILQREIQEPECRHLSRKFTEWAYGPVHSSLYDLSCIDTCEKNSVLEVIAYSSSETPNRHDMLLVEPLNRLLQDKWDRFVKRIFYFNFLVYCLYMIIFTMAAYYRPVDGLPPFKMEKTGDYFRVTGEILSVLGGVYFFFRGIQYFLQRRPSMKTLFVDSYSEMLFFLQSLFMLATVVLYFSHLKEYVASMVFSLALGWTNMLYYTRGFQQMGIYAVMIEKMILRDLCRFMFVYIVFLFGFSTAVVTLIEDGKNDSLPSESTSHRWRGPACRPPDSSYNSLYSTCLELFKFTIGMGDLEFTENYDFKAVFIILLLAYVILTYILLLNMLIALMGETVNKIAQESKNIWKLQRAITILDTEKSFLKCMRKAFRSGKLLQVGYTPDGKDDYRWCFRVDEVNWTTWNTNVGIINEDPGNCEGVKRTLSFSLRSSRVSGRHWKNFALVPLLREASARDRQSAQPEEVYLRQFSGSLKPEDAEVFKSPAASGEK
Procedure: To determine whether TRPV1 was activated, the intracellular calcium ion (Ca^+2) levels from cells transfected with the TRPV1 receptor gene was measured. HEK-239 cells stably transfected with human TRPV1 were grown in 15 ml growth medium [high glucose DMEM (Dulbecco's Modification of Eagle's Medium) supplemented with 10% FBS (fetal bovine serum), 100 g/ml Penicillin/streptomycin, 100 g/ml G418] in a 75 Cm2 flask for 3 days at 33° C. in a mammalian cell culture incubator set at 5% CO2. Cells were detached with addition of 10 ml of PBS (phosphate buffered saline) by hand shaking gently. Cells were transferred to a 50 ml tube and centrifuged at 850 rpm for 3 minutes to remove PBS. After centrifugation, a pellet of cells formed in the bottom of the tube separating them from the supernatant solution. The supernatant was discarded and the cell pellet suspended in 1 ml of fresh growth medium to which 5 μl (12.5 g) of Fluo-4 AM (Molecular Probes, Inc., Eugene, Oreg.) calcium indicator was added and incubated for 30 minutes with gentle shaking.
The pelleted cells were re-suspended in 10 ml assay buffer and 90 μl aliquots (˜50,000 cells) per well delivered to a 96-well assay plate containing 10 μl of test compounds (1 mM in assay buffer, final concentration 100 μM) or buffer control and incubated at room temperature for 30 minutes. After 30 minutes, the plate was placed into a fluorometric imaging plate reader (FLIPR384 from Molecular Devices) and basal fluorescence recorded (excitation wave length 488 nm and emission wave length 510 nm). Then 20 μl of the compound being tested as a TRPV1 receptor activator was added and fluorescence recorded. […] It may be no difference (no effect), or negative (means antagonist or desensitizer) or positive (enhancer, also known as positive allosteric modulator). […] To determine if a compound was an antagonist or a desensitizer, the direct effect of a test compound was determined. For determining the direct effect of test compounds on TRPV1, 100 μl aliquots (˜50,000 cells) of cells prepared as described above were delivered to a 96-well assay plate and basal fluorescence recorded as noted above. Then 20 μl of the compound being tested as a TRPV1 receptor activator was added and fluorescence recorded. If any increase in fluorescence over background was noted, then the compound was considered an agonist. The agonist activity was expressed relative to that observed with a benchmark agonist such as 350 nM Capsaicin for TRPV1.
100 μM of antagonist was tested against 1 mM of L-Menthol to determine the level of reduced TRPV1 receptor activation by L-Menthol. Each antagonist compound was run with 1 mM of L-Menthol as a control and the antagonist activity of each compound was determined by comparing the Ca^2+ levels of the control with the antagonist compound being tested.

[3] = target: T1, human TRPA1; assay: FLIPR Ca2+ assay, reduction of L-Menthol activation of TRPA1
Procedure: In order to determine whether TRPA1 is activated, the intracellular calcium ion (Ca^2+) level from transfected cells with the TRPA1 receptor gene was measured. HEK-2 cells stably transfected with human TRPA1 were grown in 15 ml growth medium [high glucose DMEM (Dulbecco's Modification of Eagle's Medium) supplemented with 10% FBS (fetal bovine serum), 100 μg/ml Penicillin/streptomycin, 100 μg/ml G418] in a 75 Cm^2 flask for 3 days at 37° C. in a mammalian cell culture incubator set at 5% CO2. Cells were detached with addition of 10 ml of PBS (phosphate buffered saline) by hand shaking gently and transferred to a 50 ml tube and centrifuged at 850 rpm for 3 minutes to remove PBS. After centrifugation, a pellet of cells was formed in the bottom of the tube separating them from the supernatant solution. […] Fluo-4 is a fluorescent dye used for quantifying cellular Ca^2+ concentrations in the 100 nM to 1 μM range.
The pelleted cells were re-suspended in 10 ml assay buffer and 90 μl aliquots (˜50,000 cells) per well delivered to a 96-well assay plate containing 10 μl of test compounds (1 mM in assay buffer, final concentration 100 μM) or buffer control and incubated at room temperature for 30 minutes. After 30 minutes, the plate was placed into a fluorometric imaging plate reader (FLIPR384 from Molecular Devices) and basal fluorescence recorded (excitation wave length 488 nm and emission wave length 510 nm). Then 20 μl of the molecule being tested as a TRPA1 antagonist was added and fluorescence recorded. For determining the direct effect of test compounds on TRPA1, fluorescence was measured immediately after addition of each compound.
To determine if a compound was an antagonist or a desensitizer the direct effect of a test compound was determined. For determining the direct effect of test compounds on TRPA1 receptor activation, 100 μl aliquots (˜50,000 cells) of cells prepared as described above were delivered to a 96-well assay plate and basal fluorescence recorded as noted above. Then 20 μl of the compound being tested as a TRPA1 activator was added and fluorescence recorded. If any increase in fluorescence over background was noted, then the compound was considered an agonist.

[4] = target: T1, human TRPA1; assay: FLIPR Ca2+ assay, block of AITC activation of TRPA1; assay type: cell-based; parameters: expressed in transfected cells
Procedure: Intracellular Ca^++ levels were measured using cell based assays as described for EXAMPLES 1, 2, and 3.

[5] = target: T2, human TRPV1; assay: FLIPR Ca2+ assay, reduction of hydrogen peroxide activation of TRPV1; assay type: cell-based; parameters: expressed in transfected cells
Procedure: (§2) Cells were detached with addition of 10 ml of PBS (phosphate buffered saline) by hand shaking gently. Cells were transferred to a 50 ml tube and centrifuged at 850 rpm for 3 minutes to remove PBS.
The pelleted cells were re-suspended in 10 ml assay buffer and 90 μl aliquots (˜50,000 cells) per well delivered to a 96-well assay plate containing 10 μl of test compounds (1 mM in assay buffer, […]) or buffer control and incubated at room temperature for 30 minutes.

[6] = target: T2, human TRPV1; assay: FLIPR Ca2+ assay, reduction of capsaicin activation of TRPV1; assay type: cell-based; parameters: expressed in transfected cells; conditions: with compound, Dose 1000, 350 nM Capsaicin
Procedure: as §2, §1

[7] = 100 μM antagonist vs 500 μM hydrogen peroxide
[8] = compound 100 μM against 200 μM hydrogen peroxide, Sets 1-4
[9] = 100 μM antagonist vs 1 mM L-Menthol
[10] = 400 μM antagonist vs 500 μM hydrogen peroxide

Block of hydrogen peroxide activation of TRPA1 [1, 7] | Average Ca++ Counts [1, 8] [Counts] | inhibition at 100 µM [1, 8] [%] | inhibition at 100 µM [2] [%] | Block of AITC activation of TRPA1 ([4]; 100 μM antagonist) | Compound | Average Ca2+ Counts [2] [Counts] | Block of L-Menthol activation of TRPA1 [3, 9] | also measured
Block menthol, H2O2, and AITC on TRPA1 | – | – | – | Block menthol, H2O2, and AITC on TRPA1 | SCCc1cnccn1 [2-Pyrazinyl ethanethiol] | – | Block menthol, H2O2, and AITC on TRPA1 | –
Block menthol, H2O2, and AITC on TRPA1 | 4808.5 | 54.6 | – | Block menthol, H2O2, and AITC on TRPA1 | CCc1ccccc1S [2-ethylbenzenethiol] | – | Block menthol, H2O2, and AITC on TRPA1 | –
Block menthol, H2O2, and AITC on TRPA1 | 2402.0 | 72.5 | 34.3 | Block menthol, H2O2, and AITC on TRPA1 | CC1SCCS1 [2-methyl-1,3-dithiolane] | 2650.5 | Block menthol, H2O2, and AITC on TRPA1 | –
– | – | – | 38.9 | BLOCK BOTH MENTHOL AND AITC ON TRPA1 | Cc1occc1S [2-methyl-3-furanthiol] | 2835.5 | BLOCK BOTH MENTHOL AND AITC ON TRPA1; also recorded: BLOCK ONLY MENTHOL/TRPA1 | –
Block both H2O2 and AITC on TRPA1 | 3314.5 | 43.6 | – | Block both H2O2 and AITC on TRPA1 | CCOC(=O)CC(C)=O [ethyl acetoacetate] | – | – | –
Block both H2O2 and AITC on TRPA1 | 3392.5 | 51.8 | – | Block both H2O2 and AITC on TRPA1 | CC(C)OC(=O)C(C)C [isobutyric acid isopropyl ester] | – | – | –
Block both H2O2 and AITC on TRPA1 | 2893.5 | 72.7 | – | Block both H2O2 and AITC on TRPA1 | O=C(Oc1ccccc1)c1ccccc1O [phenyl salicylate] | – | – | –
Block menthol, H2O2, and AITC on TRPA1 | 215.0 | 96.9 | 27.9 | Block menthol, H2O2, and AITC on TRPA1 | O=C(CCc1ccc(O)cc1)c1c(O)cc(O)cc1O [phloretin] | 4616.5 | Block menthol, H2O2, and AITC on TRPA1 | –
– | – | – | 43.6 | BLOCK BOTH MENTHOL AND AITC ON TRPA1 | O=C(O)CCC(=O)O [succinic acid] | 1045.0 | BLOCK BOTH MENTHOL AND AITC ON TRPA1 | –

The remaining lines, values behind:

Compound | Block of hydrogen peroxide activation of TRPA1 [1, 7] | Average Ca++ Counts [1, 8] [Counts] | inhibition at 100 µM [1, 8] [%] | inhibition at 100 µM [2] [%] | Block of AITC activation of TRPA1 ([4]; 100 μM antagonist) | Average Ca2+ Counts [2] [Counts] | Block of L-Menthol activation of TRPA1 [3, 9] | also measured
CCCCCCCCCCCCCCCCCC(=O)OCC(O)CO (racemic) [1-stearoyl-rac-glycerol] | Block menthol, H2O2, and AITC on TRPA1 | 3131.0 | 55.5 | 26.4 | Block menthol, H2O2, and AITC on TRPA1 | 4708.0 | Block menthol, H2O2, and AITC on TRPA1 | –
CC(S)C(C)S (stereo not drawn) [2,3-butanedithiol] | Block menthol, H2O2, and AITC on TRPA1 | 1280.5 | 87.9 | 64.8 | Block menthol, H2O2, and AITC on TRPA1 | 586.0 | Block menthol, H2O2, and AITC on TRPA1 | –
CC1(O)CSC(C)(O)CS1 (stereo not drawn) [2,5-dimethyl-1,4-dithiane-2,5-diol] | Block menthol, H2O2, and AITC on TRPA1 | 2420.0 | 77.2 | 58.9 | Block menthol, H2O2, and AITC on TRPA1 | 713.7 | Block menthol, H2O2, and AITC on TRPA1 | –
Cc1cc(S)c(C)o1 [2,5-dimethylfuran-3-thiol] | – | – | – | 25.2 | BLOCK BOTH MENTHOL AND AITC ON TRPA1 | 1443.0 | BLOCK BOTH MENTHOL AND AITC ON TRPA1 | –
CCOc1nccnc1CC [2-Ethoxy-3-ethylpyrazine] | – | – | – | – | – | – | – | inhibition at 100 µM ([5]; antagonist 100 μM against 500 μM hydrogen peroxide): 58%; Ca++ counts ([5]; with compound, Dose 1000, 500 uM H2O2): 474; Ca++ counts [6]: 14878
O=C(CCl)c1ccccc1 [2-chloroacetophenone] | Block menthol, H2O2, and AITC on TRPA1 | 1199.5 | – | 31.2 | Block menthol, H2O2, and AITC on TRPA1 | 1313.0 | Block menthol, H2O2, and AITC on TRPA1 | inhibition at 100 µM [1]: 88.7%
CCCCCCCCCC(C)=O [2-undecanone] | – | – | – | 32.6 | Block menthol, H2O2, and AITC on TRPA1 | 1282.3 | Block menthol, H2O2, and AITC on TRPA1 | Average Ca++ Counts [1]: 4581.0 Counts; Block of hydrogen peroxide activation of TRPA1 [1]: Block menthol, H2O2, and AITC on TRPA1; inhibition at 100 µM [1]: 56.8%
CSCCCN=C=S [3-(methylthio)propyl isothiocyanate] | – | – | – | 25.9 | BLOCK BOTH MENTHOL AND AITC ON TRPA1 | 1426.7 | BLOCK BOTH MENTHOL AND AITC ON TRPA1 | –
CCCCOC(=O)c1ccc(O)cc1 [butyl 4-hydroxybenzoate] | – | – | – | 77.2 | Block menthol, H2O2, and AITC on TRPA1 | 319.0 | Block menthol, H2O2, and AITC on TRPA1 | Average Ca++ Counts [1]: 411.0 Counts; Block of hydrogen peroxide activation of TRPA1 [1]: Block menthol, H2O2, and AITC on TRPA1; inhibition at 100 µM [1]: 96.1%
[Cu+].[I-] [copper(i) iodide] | Block menthol, H2O2, and AITC on TRPA1 | – | – | – | Block menthol, H2O2, and AITC on TRPA1 | 651.5 | Block menthol, H2O2, and AITC on TRPA1 | % Reduction of Hydrogen Peroxide TRPA1 Activation [1, 8]: 90.4%; % Reduction of L-Menthol TRPV1 Activation [2]: 89.8%
c1ccc(SSc2ccccc2)cc1 [diphenyl disulfide] | – | – | – | 64.9 | Block menthol, H2O2, and AITC on TRPA1 | 1630.5 | Block menthol, H2O2, and AITC on TRPA1 | Average Ca++ Counts [1]: 1112.0 Counts; Block of hydrogen peroxide activation of TRPA1 [1]: Block menthol, H2O2, and AITC on TRPA1; inhibition at 100 µM [1]: 81.1%
COc1ccccc1C=CC=O [o-Methoxycinnamaldehyde] | – | – | – | – | – | – | – | Block of hydrogen peroxide activation of TRPA1 [1, 10]: Block both H2O2 and AITC on TRPA1; inhibition at 400 µM [1]: 51%; Block of AITC activation of TRPA1 ([4]; 400 μM antagonist): Block both H2O2 and AITC on TRPA1
O=CCc1ccccc1 [phenylacetaldehyde] | Block menthol, H2O2, and AITC on TRPA1 | 2578.5 | 75.7 | 49.4 | Block menthol, H2O2, and AITC on TRPA1 | 919.3 | Block menthol, H2O2, and AITC on TRPA1 | –
CCCC/C=C/C=C/C=O [trans, trans-2,4-Nonadienal] | – | – | – | – | – | – | – | Block of hydrogen peroxide activation of TRPA1 [1, 10]: Block both H2O2 and AITC on TRPA1; inhibition at 400 µM [1]: 67%; Block of AITC activation of TRPA1 ([4]; 400 μM antagonist): Block both H2O2 and AITC on TRPA1
manganese chloride | Block menthol, H2O2, and AITC on TRPA1 | 2872.5 | – | – | – | 3922.0 | – | % Reduction of Hydrogen Peroxide TRPA1 Activation [1, 8]: 59.2%; % Reduction of L-Menthol TRPV1 Activation [2]: 38.7%; Block of L-Menthol activation of TRPA1 [3]: Block menthol, H2O2, and AITC on TRPA1; Block of AITC activation of TRPA1 [4]: Block menthol, H2O2, and AITC on TRPA1
zinc gluconate | – | – | – | – | BLOCK BOTH MENTHOL AND AITC ON TRPA1 | 3963.5 | BLOCK BOTH MENTHOL AND AITC ON TRPA1 | % Reduction of L-Menthol TRPV1 Activation [2]: 38.1%
